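A five-concentration, 48-hour dose response in 96-well plates underlies each endpoint, interpolated linearly between surrounding concentrations. GI50: concentration for 50% inhibition of growth.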 Activity calls are given as the source filed them. No stated cut-off is given here; in the data, active = GI50 up to about 1.1 µM and inactive = higher.
How the values were obtained:
Assay in all cases: growth of human tumour cells (NCI), 48 h
SNB-75 = system: SNB-75
PC-3 = system: PC-3
CAKI-1 = system: CAKI-1
SNB-19 = system: SNB-19
SK-MEL-5 = system: SK-MEL-5
NCI-H460 = system: NCI-H460
OVCAR-3 = system: OVCAR-3
KM12 = system: KM12
NCI-H226 = system: NCI-H226
T47D = system: T47D
BT-549 = system: BT-549
M14 = system: M14
UACC-257 = system: UACC-257
HCT-116 = system: HCT-116
DU-145 = system: DU-145
HT-29 = system: HT-29
SF-268 = system: SF-268
UO-31 = system: UO-31
MDA-MB-231 = system: MDA-MB-231
Hs-578T = system: Hs-578T

COc1cc(C2c3cc4c(cc3[C@@H](Nc3ccc(F)cc3)C3COC(=O)[C@H]23)OCO4)cc(OC)c1O (stereo partly drawn)
GI50 (SNB-75): 1.91 µM (inactive) | GI50 (PC-3): 1.65 µM (inactive) | GI50 (CAKI-1): 0.514 µM (active) | GI50 (SNB-19): 1.38 µM (inactive) | GI50 (SK-MEL-5): 1.78 µM (inactive) | GI50 (NCI-H460): 0.0468 µM (active) | GI50 (OVCAR-3): 5.04 µM (inactive) | GI50 (KM12): 3.77 µM (inactive) | GI50 (NCI-H226): 0.897 µM (active) | GI50 (T47D): 0.605 µM (active) | GI50 (BT-549): 2.61 µM (inactive) | GI50 (M14): 2.56 µM (inactive) | GI50 (UACC-257): 6.05 µM (inactive) | GI50 (HCT-116): 2.77 µM (inactive) | GI50 (DU-145): 0.368 µM (active) | GI50 (HT-29): 3.41 µM (inactive) | GI50 (SF-268): 3.17 µM (inactive) | GI50 (UO-31): 1.65 µM (inactive) | GI50 (MDA-MB-231): 4.33 µM (inactive)

NS(=O)(=O)c1nnc(NC(=S)NC(=O)Nc2ccc(Cl)c(Cl)c2)s1
GI50 (SNB-75): 17.4 µM (inactive) | GI50 (PC-3): 27.3 µM (inactive) | GI50 (Hs-578T): 24.3 µM (inactive) | GI50 (CAKI-1): 23.4 µM (inactive) | GI50 (SNB-19): 28.3 µM (inactive) | GI50 (SK-MEL-5): 21.2 µM (inactive) | GI50 (OVCAR-3): 20.8 µM (inactive) | GI50 (KM12): 18.7 µM (inactive) | GI50 (NCI-H226): 23.9 µM (inactive) | GI50 (BT-549): 21.3 µM (inactive) | GI50 (M14): 17.9 µM (inactive) | GI50 (UACC-257): 23.1 µM (inactive) | GI50 (HCT-116): 16.9 µM (inactive) | GI50 (DU-145): 20.8 µM (inactive) | GI50 (HT-29): 25.5 µM (inactive) | GI50 (SF-268): 27.5 µM (inactive) | GI50 (UO-31): 20.6 µM (inactive) | GI50 (MDA-MB-231): 30.4 µM (inactive)

O=C(NN1C(=O)/C(=C/c2ccc(Cl)cc2)N=C1c1ccccc1)c1c(Cl)c(Cl)c(Cl)c(Cl)c1-c1nc2ccccc2[nH]1
GI50 (SNB-75): 12.2 µM (inactive) | GI50 (PC-3): 20.2 µM (inactive) | GI50 (Hs-578T): 13.5 µM (inactive) | GI50 (CAKI-1): 18.9 µM (inactive) | GI50 (SNB-19): 22.1 µM (inactive) | GI50 (SK-MEL-5): 19.7 µM (inactive) | GI50 (NCI-H460): < 0.01 µM (active) | GI50 (OVCAR-3): 33 µM (inactive) | GI50 (KM12): 4.15 µM (inactive) | GI50 (NCI-H226): 8 µM (inactive) | GI50 (T47D): 0.582 µM (active) | GI50 (BT-549): 13.4 µM (inactive) | GI50 (M14): 17.3 µM (inactive) | GI50 (HCT-116): 15.6 µM (inactive) | GI50 (DU-145): 17.7 µM (inactive) | GI50 (HT-29): 27.4 µM (inactive) | GI50 (SF-268): 14.6 µM (inactive) | GI50 (UO-31): 16.3 µM (inactive)

O=C(ON=c1c2ccccc2ccc2ccccc12)c1cc([N+](=O)[O-])cc([N+](=O)[O-])c1
GI50 (SNB-75): 40.8 µM (inactive) | GI50 (PC-3): 41.8 µM (inactive) | GI50 (Hs-578T): 76.7 µM (inactive) | GI50 (SNB-19): > 100 µM (inactive) | GI50 (SK-MEL-5): 50.5 µM (inactive) | GI50 (NCI-H460): > 100 µM (inactive) | GI50 (OVCAR-3): 94.6 µM (inactive) | GI50 (KM12): 49 µM (inactive) | GI50 (NCI-H226): > 100 µM (inactive) | GI50 (BT-549): 54.8 µM (inactive) | GI50 (M14): > 100 µM (inactive) | GI50 (UACC-257): > 100 µM (inactive) | GI50 (HCT-116): 87.3 µM (inactive) | GI50 (DU-145): 97.3 µM (inactive) | GI50 (HT-29): 94.4 µM (inactive) | GI50 (SF-268): > 100 µM (inactive) | GI50 (UO-31): 48 µM (inactive) | GI50 (MDA-MB-231): > 100 µM (inactive)

NC(=O)/C=C/c1c[nH]c2nccnc12
GI50 (SNB-75): 1.78 µM (inactive) | GI50 (PC-3): 2.99 µM (inactive) | GI50 (CAKI-1): 3.08 µM (inactive) | GI50 (SNB-19): 0.973 µM (active) | GI50 (SK-MEL-5): 2.25 µM (inactive) | GI50 (NCI-H460): 3.7 µM (inactive) | GI50 (OVCAR-3): 2.34 µM (inactive) | GI50 (KM12): 2.93 µM (inactive) | GI50 (NCI-H226): 0.78 µM (active) | GI50 (T47D): 3.5 µM (inactive) | GI50 (BT-549): 2.2 µM (inactive) | GI50 (M14): 3.97 µM (inactive) | GI50 (UACC-257): 4.11 µM (inactive) | GI50 (HCT-116): 1.59 µM (inactive) | GI50 (DU-145): 3.44 µM (inactive) | GI50 (HT-29): 2.68 µM (inactive) | GI50 (SF-268): 2.05 µM (inactive) | GI50 (UO-31): 0.735 µM (active) | GI50 (MDA-MB-231): 3.71 µM (inactive)

C[C@@H](C(=O)O)N1C(c2ccco2)=C(/C(C=O)=C\c2ccco2)C(=O)/C1=C\c1ccco1
GI50 (PC-3): > 100 µM (inactive) | GI50 (Hs-578T): > 100 µM (inactive) | GI50 (CAKI-1): > 100 µM (inactive) | GI50 (SNB-19): > 100 µM (inactive) | GI50 (SK-MEL-5): > 100 µM (inactive) | GI50 (OVCAR-3): > 100 µM (inactive) | GI50 (KM12): > 100 µM (inactive) | GI50 (T47D): > 100 µM (inactive) | GI50 (BT-549): > 100 µM (inactive) | GI50 (M14): > 100 µM (inactive) | GI50 (UACC-257): > 100 µM (inactive) | GI50 (HCT-116): > 100 µM (inactive) | GI50 (DU-145): > 100 µM (inactive) | GI50 (HT-29): > 100 µM (inactive) | GI50 (SF-268): > 100 µM (inactive) | GI50 (UO-31): > 100 µM (inactive) | GI50 (MDA-MB-231): > 100 µM (inactive)

CC1(C)O[C@H]2Cn3c(c(C#N)c4ccccc43)[C@H]2O1
GI50 (SNB-75): 39.8 µM (inactive) | GI50 (Hs-578T): > 100 µM (inactive) | GI50 (CAKI-1): 85.1 µM (inactive) | GI50 (SNB-19): > 100 µM (inactive) | GI50 (SK-MEL-5): > 100 µM (inactive) | GI50 (NCI-H460): > 100 µM (inactive) | GI50 (OVCAR-3): > 100 µM (inactive) | GI50 (KM12): > 100 µM (inactive) | GI50 (T47D): > 100 µM (inactive) | GI50 (BT-549): > 100 µM (inactive) | GI50 (M14): > 100 µM (inactive) | GI50 (HCT-116): > 100 µM (inactive) | GI50 (DU-145): > 100 µM (inactive) | GI50 (HT-29): > 100 µM (inactive) | GI50 (SF-268): > 100 µM (inactive) | GI50 (UO-31): > 100 µM (inactive) | GI50 (MDA-MB-231): > 100 µM (inactive)

S=c1[nH]nc(Cn2c3ccc(Br)cc3c3nc4ccccc4nc32)n1C1CCCCC1
GI50 (SNB-75): 52.2 µM (inactive) | GI50 (PC-3): 20.4 µM (inactive) | GI50 (CAKI-1): 34.2 µM (inactive) | GI50 (SNB-19): 43.5 µM (inactive) | GI50 (SK-MEL-5): 6.87 µM (inactive) | GI50 (NCI-H460): 20.2 µM (inactive) | GI50 (OVCAR-3): 18.5 µM (inactive) | GI50 (KM12): 32.7 µM (inactive) | GI50 (NCI-H226): 20.5 µM (inactive) | GI50 (T47D): 19.4 µM (inactive) | GI50 (BT-549): 52.2 µM (inactive) | GI50 (M14): 29.8 µM (inactive) | GI50 (UACC-257): 31.6 µM (inactive) | GI50 (HCT-116): 12.1 µM (inactive) | GI50 (DU-145): 27.8 µM (inactive) | GI50 (HT-29): 16.1 µM (inactive) | GI50 (SF-268): 51.6 µM (inactive) | GI50 (UO-31): 18.2 µM (inactive) | GI50 (MDA-MB-231): 36.5 µM (inactive)

NC(=S)N/N=c1\cc(C(=O)Nc2ccc([N+](=O)[O-])cc2[N+](=O)[O-])oc2ccccc12
GI50 (SNB-75): > 100 µM (inactive) | GI50 (PC-3): > 100 µM (inactive) | GI50 (Hs-578T): > 100 µM (inactive) | GI50 (CAKI-1): 75.2 µM (inactive) | GI50 (SNB-19): > 100 µM (inactive) | GI50 (SK-MEL-5): > 100 µM (inactive) | GI50 (NCI-H460): > 100 µM (inactive) | GI50 (OVCAR-3): 85.5 µM (inactive) | GI50 (KM12): > 100 µM (inactive) | GI50 (NCI-H226): 88.9 µM (inactive) | GI50 (BT-549): > 100 µM (inactive) | GI50 (M14): > 100 µM (inactive) | GI50 (UACC-257): > 100 µM (inactive) | GI50 (HCT-116): > 100 µM (inactive) | GI50 (DU-145): > 100 µM (inactive) | GI50 (HT-29): > 100 µM (inactive) | GI50 (SF-268): > 100 µM (inactive) | GI50 (UO-31): 29.8 µM (inactive) | GI50 (MDA-MB-231): > 100 µM (inactive)

COc1ccc(-c2nc(-c3cnccn3)n(COCCO)n2)cc1
GI50 (PC-3): > 100 µM (inactive) | GI50 (SNB-19): > 100 µM (inactive) | GI50 (SK-MEL-5): > 100 µM (inactive) | GI50 (NCI-H460): > 100 µM (inactive) | GI50 (OVCAR-3): > 100 µM (inactive) | GI50 (KM12): > 100 µM (inactive) | GI50 (T47D): > 100 µM (inactive) | GI50 (BT-549): > 100 µM (inactive) | GI50 (M14): > 100 µM (inactive) | GI50 (UACC-257): > 100 µM (inactive) | GI50 (HCT-116): > 100 µM (inactive) | GI50 (DU-145): > 100 µM (inactive) | GI50 (HT-29): > 100 µM (inactive) | GI50 (SF-268): > 100 µM (inactive) | GI50 (UO-31): > 100 µM (inactive) | GI50 (MDA-MB-231): > 100 µM (inactive)

CC1SC2(CCCCC2)N(NC(=O)CSc2nc3ccc(Cl)cc3c(=O)n2-c2ccccc2)C1=O (stereo not drawn)
GI50 (SNB-75): 20.7 µM (inactive) | GI50 (PC-3): 23.2 µM (inactive) | GI50 (CAKI-1): 37.1 µM (inactive) | GI50 (SNB-19): 24.1 µM (inactive) | GI50 (SK-MEL-5): 14.3 µM (inactive) | GI50 (NCI-H460): 16.8 µM (inactive) | GI50 (OVCAR-3): 15.6 µM (inactive) | GI50 (KM12): 30.1 µM (inactive) | GI50 (T47D): 27.3 µM (inactive) | GI50 (BT-549): 20.2 µM (inactive) | GI50 (M14): 20 µM (inactive) | GI50 (UACC-257): 22.8 µM (inactive) | GI50 (HCT-116): 14 µM (inactive) | GI50 (DU-145): 27 µM (inactive) | GI50 (HT-29): 16.6 µM (inactive) | GI50 (SF-268): 25.8 µM (inactive) | GI50 (UO-31): 21.1 µM (inactive) | GI50 (MDA-MB-231): 18.3 µM (inactive)
